Results on eleven molecules are retold here after US6753182B1, “Cryopreservation of plant cells” (Phyton, Inc., priority 1995, dated 2004).

Data set [1] has as its system Taxus cells. Nature of the data set: Post-thaw viability of cryopreserved Taxus cells (FDA / trypan blue staining). As to conditions: for Survival: 3% mannitol, vitrified 40/30 ethylene glycol/sorbitol, post-thaw. The protocol:
Culturing cells at high density maximizes the productivity of the cell culture process. […] Cell viability was determined by staining with a 0.05% fluorescein diacetate (FDA) in acetone (J. M. Widholm, Stain Technol 47:189-94, 1972) followed by counting the number of green fluorescein cells upon excitation with blue light in a fluorescence microscope.
After 3 days of incubation in growth medium with mannitol, cells were cold acclimated at 4° C. for 3 hours. Acclimated cells were harvested and transferred to 4 ml cryovials containing a cold vitrifying solution of 40/30 wt % ethylene glycol/sorbitol in media. The vials were incubated at 4° C. for 3 minutes and frozen by immersion into liquid nitrogen. Vials were maintained in liquid nitrogen for at least 10 minutes before use in the thawing experiments.
Vials of frozen cells were removed from liquid nitrogen storage and agitated at 40° C. until the contents are liquefied (1-2 minutes). The liquefied cells were then washed 5 to 6 times with sterile media containing 1 M sorbitol, 3 times with media containing 0.5 M sorbitol media, 3 times with 0.1 M sorbitol media, and 3 times with sorbitol free media. Washing was performed by resuspension of cells in wash media, centrifugation at 50×g for 2 minutes and aspiration of wash media from the cell pellet. Cell viability was determined immediately after thawing.
Various osmotic agents in growth medium were evaluated to determine their effects on the survival of Taxus species cells precultured with the agents, after the preculture period and after thawing of the cryoprotected and frozen Taxus cell suspensions. Cells of three-day cell culture suspensions were precultured in growth medium containing various osmotic agents prior to cryoprotection. Cryoprotected cells were frozen and stored in liquid nitrogen for a minimum of one hour. Viability tests were performed at the end of the preculture period (control) and immediately after thawing of the cryoprotected and frozen cell.
Taxus cells were harvested from cell culture and the biomass resuspended in growth medium containing mannitol at a concentration of 3% for one day or three-days at room temperature. Loaded cells were incubated at 4° C. for 3 hours and transferred to 4 ml cryovials containing cold vitrifying solution comprising 40/30 weight percent ethylene glycol/sorbitol in culture medium. The vials were incubated at 4° C. for three minutes and frozen by liquid nitrogen immersion. Cells contained in the vials were maintained in liquid nitrogen for at least 10 minutes.
Cryopreserved cells were thawed and their viability was determined by FDA and tryptan blue staining procedures.
Cultured Tarus cells were harvested and resuspended in fresh growth medium containing 3% mannitol for 3 days. Cells were cold acclimated for 3 hours and transferred to cryovials containing vitrification solution. Cell suspensions were frozen by liquid nitrogen immersion. Liquid nitrogen frozen cells were thawed by agitating the cryovials in a 40° C. water bath for 1-2 minutes.

Data set [2] relates to Taxus cells. Nature of the data set: Viability of Taxus cells at end of preculture period (before freezing). It is filed as cell-based, Taxus species. Conditions: end of preculture period with the osmotic agent, not frozen.
Data set [3] deals with Taxus species cell line KS1A. Nature of the data set: Post-thaw viability of cryopreserved Taxus cell line KS1A (FDA staining). It is filed as cell-based. The method, then: (§1) Cells of Taxus suspension cultures (KS1A) were harvested and precultured with various osmotic agents in the medium. Osmotic agents tested include trehalose, proline, sorbitol (0.15 M-0.8 M), sucrose (2-20%) and mannitol (0.16 M). Viability was evaluated for each cell suspension at the end of the preculture period and immediately after thawing. Regrowth was evaluated after post-thaw osmotic adjustment. The vitrification solutions used were ethylene glycol/sorbitol/pectin and ethylene glycol/sorbitol at 40/30 weight percent in culture medium.
Six to seven day cell suspensions of Taxus species cell line KS1A were pretreated with 3% mannitol for three days at room temperature. Loaded cells were acclimated to the cold by incubating the flasks at 4° C. for 3 hours. Cold acclimated cells were transferred to 4 ml cryovials and cold vitrification solution was added to each and mixed. After vitrification at 4° C. for three minutes, cells were frozen liquid nitrogen immersion. Vials were maintained in liquid nitrogen for at least 10 minutes.
Cryopreserved cells were thawed by transferring vials from liquid nitrogen and agitated in a 40° C. water bath for 1-2 minutes. Post-thaw viability was determined by FDA staining assay.

In data set [4] the test system is Taxus suspension cultures (KS1A). As to the kind of experiment: Viability of Taxus KS1A cells at end of preculture period. It is filed as cell-based, Taxus species. The method, then: as §1
Data set [5] has as its system Taxus species cell line KS1A. As to the kind of experiment: Cell viability and growth before and after cryopreservation, line KS1A. In kind it is cell-based. Conditions: 3% mannitol 3 days, before freezing. The method, then: (§2) Six to seven day old cell suspensions of each cell line were harvested and the biomass resuspended in fresh growth medium containing 3% mannitol. Cells were incubated for 3 days at room temperature and thereafter the loaded cells suspensions were incubated at 4° C. for from 3 hours. Cold acclimated cells were transferred to 4 ml cryovials containing a cold vitrification solution of ethylene glycol/sorbitol 40/30 wt %. The vitrification solution and cells were gently mixed and the vials were incubated at […] for 3 minutes. Thereafter, the cell suspensions were frozen by liquid nitrogen immersion for at least 10 minutes.
(§3) After freezing, the cells were thawed by transferring the frozen vials from liquid nitrogen to a 40° C. water bath for 1-2 minutes. Post-thaw cell viability was determined by FDA staining assay. Cells were washed 5-6 times with cold sterile 1M sorbitol media and resuspended in fresh 1 M in medium.
(§4) The cell suspensions free from toxic cryoprotectants were then each separately filtered using a buchner funnel and Whatmann 541 filter paper under sterile conditions. For each cell suspension, the filter with cells was layered on semisolid growth medium containing 0.5M sorbitol and equilibrated for 30 minutes at room temperature. Paper containing cells was transferred to solid growth medium containing 0.1M sorbitol and incubated for 24 hours. […]

The test system of data set [6] is Taxus species cell line KEIR. Nature of the data set: Cell viability and growth before and after cryopreservation, line KEIR. As to conditions: 3% mannitol 3 days, before freezing. In kind it is cell-based. The method, then:
as §2, §3, §4

Data set [7] concerns Taxus species cell line 647. As to the kind of experiment: Cell viability and growth before and after cryopreservation, line 647. It is filed as cell-based. As to conditions: 3% mannitol 3 days, before freezing. The method, then:
as §2, §3, §4

Data set [8] relates to Taxus species cell line 1224. Nature of the data set: Cell viability and growth before and after cryopreservation, line 1224. In kind it is cell-based. As to conditions: 3% mannitol 3 days, before freezing. The method, then: as §2, §3, §4
Data set [9] deals with Taxus species cell line 12-6. Nature of the data set: Cell viability and growth before and after cryopreservation, line 12-6. It is filed as cell-based. As to conditions: 3% mannitol 3 days, before freezing. The protocol: as §2, §3, §4
Data set [10] has as its system Taxus species cell line 12-14. Nature of the data set: Cell viability and growth before and after cryopreservation, line 12-14. It is filed as cell-based. Conditions: 3% mannitol 3 days, before freezing. The method, then:
as §2, §3, §4

The test system of data set [11] is Taxus species cell line 1220. As to the kind of experiment: Cell viability and growth before and after cryopreservation, line 1220. Conditions: 3% mannitol 3 days, before freezing. In kind it is cell-based. The method, then:
as §2, §3, §4

Data set [12] has as its system Taxus cells. Nature of the data set: Regrowth of Taxus cells after thawing and osmotic adjustment. It is filed as cell-based, Taxus species. As to conditions: after thawing.
Data set [13] deals with Taxus cells. Described as above. It is filed as cell-based, Taxus species. As to conditions: after thawing. The protocol:
Cell viability was determined immediately after thawing. The summary of multiple experiments is listed below.
Six to seven day old cell suspensions in growth medium were harvested and the cell biomass resuspended in fresh growth medium containing 0.06 M, 0.12 M, 0.15 M, 0.29 M and 0.58 M sucrose. Cells were cryopreserved, frozen, thawed and osmotically adjusted accordingly. Cell viability was determined immediately after thawing.
The source holds these as a separate data set.

In data set [14] the test system is microtubles of mammalian cells. Conditions: cited from earlier work.
The subject of data set [15] is refractory ovarian, breast and other cancers. Conditions: clinical trials; cited from earlier work.
Setting [16] is: cryoprotectant in vitrification solution: DMSO 5%-30%, propylene glycol 15%, glycerol 20%-30%, PEG-8000 10%, ethylene glycol 20%-50%, 3% mannitol 3 days, after −196° C. storage.
Where [17] appears, read: cryoprotectants ethylene glycol/sorbitol 40/30 weight percent, immediately after thawing, sorbitol 0.15 M-0.8 M, sucrose 2%-20%, mannitol 0.16 M.
[18] abbreviates: end of preculture with osmotic agent (sorbitol 0.15 M-0.8 M, sucrose 2%-20%, mannitol 0.16 M).

Where two headings read alike, the source gives them in different places.

As to `C[S+](C)[O-]` [DMSO, dimethylsulfoxide], the Viability entry in the data set on Taxus cells [1] (setting [16]) is on record as “≦15%”.
With `OCCO` [Ethylene Glycol, ethylene glycol], the Viability in the data set with Taxus cells [1] (setting [16]) was 25%-80%; with Taxus cells [1] (cryoprotectant in vitrification solution: DMSO 5%-30%, propylene glycol 15%, glycerol 20%-30%, PEG-8000 10%, ethylene glycol 20%-50%, 3% mannitol 3 days, after −196° C. storage, listed as ethylene glycol), “highest viability”.
In the case of `OCC(O)CO` [Glycerol, glycerol], the Viability with Taxus cells [1] (setting [16]) worked out at 0%.
Regarding `OC[C@@H](O)[C@@H](O)[C@H](O)[C@H](O)CO` [Mannitol, mannitol], the “Survival (Viability) Frozen” value is listed as “highest percent viability” in the data set on Taxus cells [1] and 40-80% in the data set with Taxus cells [1] (Taxus species). Besides, the Survival in the data set with Taxus cells [1] (1 day of preculture) is 50%; in the data set with Taxus cells [1] (3 days of preculture), 40-80%; in the data set with Taxus cells [1] (3 days of preculture, listed as mannitol), “significantly higher”. Besides, the Viability was 60% with Taxus cells [1] (Taxus species, 3 days, 0.16 M); 30% in the data set with Taxus cells [1] (Taxus species, 3 days, 0.22 M); 30% in the data set on Taxus cells [1] (Taxus species, 3 days, 0.33 M); 20% in the data set with Taxus cells [1] (Taxus species, 3 days, 0.44 M); 75-95% in [4] (setting [18]). Moreover, the “Survival (Viability) Control” value in the data set with Taxus cells [2] is given as 50-95%. In addition, the “Recovery Viability” value in data set [3] (setting [17]) is on record as 40-80%; in data set [3] (cryoprotectants ethylene glycol/sorbitol 40/30 weight percent, immediately after thawing, sorbitol 0.15 M-0.8 M, sucrose 2%-20%, mannitol 0.16 M, listed as mannitol), “highest percent viability”. Moreover, the “Viability (preculture)” value in [5], in data set [6], in [7], in data set [8], in data set [9] and in [10] was “≧95%” throughout. Further, the “Viability (preculture)” value in data set [11] is on record as “≧95%”. The Regrowth result is “vigorous” with Taxus cells [12] (0.16 M mannitol preculture 3 days), “slight” with Taxus cells [12] (0.22 M mannitol preculture 3 days), “slight” in the data set with Taxus cells [12] (0.33 M mannitol preculture 3 days) and “slight” in the data set with Taxus cells [12] (0.44 M mannitol preculture 3 days).
In the case of `O=C(O)[C@@H]1CCCN1` [Proline, proline], the “Survival (Viability) Frozen” value in the data set on Taxus cells [1] (Taxus species) is <15%. Also, the “Survival (Viability) Control” value in the data set with Taxus cells [2] is reported as <50%. In addition, the “Recovery Viability” value in data set [3] (Taxus species) was <15%. For the same molecule, in data set [4] (Taxus species), the Viability is 50-95%.
On to `CC(O)CO` (centres unmarked) [Propylene Glycol, propylene glycol], for which, in the data set with Taxus cells [1] (setting [16]), the Viability was 0%.
Turning to `OC[C@@H](O)[C@@H](O)[C@H](O)[C@@H](O)CO` [Sorbitol, sorbitol], the “Survival (Viability) Frozen” value in the data set on Taxus cells [1] (Taxus species) was 30-70%. The “Survival (Viability) Control” value in the data set with Taxus cells [2] is recorded as 50-95%. Also, in [3] (setting [17]), the “Recovery Viability” value is reported as 30-70%. Further, the Viability in data set [4] (setting [18]) was 50-95%. Further, the Regrowth entry in the data set on Taxus cells [12] (0.15 M sorbitol pretreatment) was “none”; with Taxus cells [12] (0.22 M sorbitol pretreatment), “vigorous”; in the data set on Taxus cells [12] (0.33 M sorbitol pretreatment), “vigorous”; in the data set with Taxus cells [12] (0.44 M sorbitol pretreatment) it was “vigorous”; in the data set with Taxus cells [12] (0.80 M sorbitol pretreatment), “slight”.
Take `OC[C@H]1O[C@@](CO)(O[C@H]2O[C@H](CO)[C@@H](O)[C@H](O)[C@H]2O)[C@@H](O)[C@@H]1O` [Sucrose, sucrose]: in the data set with Taxus cells [1] (Taxus species), the “Survival (Viability) Frozen” value is 20-50%. In addition, the Regrowth entry with Taxus cells [13] (0.06 M sucrose pretreatment), in the data set on Taxus cells [13] (0.12 M sucrose pretreatment), in the data set with Taxus cells [13] (0.15 M sucrose pretreatment), with Taxus cells [13] (0.29 M sucrose pretreatment) and in the data set on Taxus cells [13] (0.58 M sucrose pretreatment) was “slight” throughout. Further, in the data set on Taxus cells [2], the “Survival (Viability) Control” value is reported as 50-95%. The “Recovery Viability” value in [3] (Taxus species) is reported as <10-40%. In addition, in data set [4] (Taxus species), the Viability is 50-95%.
On to `OC[C@H]1O[C@H](O[C@H]2O[C@H](CO)[C@@H](O)[C@H](O)[C@H]2O)[C@H](O)[C@@H](O)[C@@H]1O` [Trehalose, trehalose], for which the “Survival (Viability) Frozen” value in the data set on Taxus cells [1] (Taxus species) is on record as <15%. Further, in the data set on Taxus cells [2], the “Survival (Viability) Control” value was 50-95%.
As for `CC(=O)O[C@H]1C(=O)[C@@]2(C)[C@H]([C@H](OC(=O)c3ccccc3)[C@]3(O)C[C@H](OC(=O)[C@H](O)[C@@H](NC(=O)c4ccccc4)c4ccccc4)C(C)=C1C3(C)C)[C@]1(OC(C)=O)CO[C@@H]1C[C@@H]2O` [taxol], the “inhibition of the polymerization of microtubles” value in data set [14] is on record as “effectively inhibits”. For the same molecule, in [15], the clinical efficacy result is “extremely effective”.
Consider PEG-8000, for which the Viability in the data set on Taxus cells [1] turned out to be 0%.
